Experimental data from PubChem BioAssay (NCI).
“And” between values parts separate entries of the source, which are not always exact repeats. Equal values may be shown once.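 Cultured in 96-well plates, cells were exposed to test compound for 48 hours across five concentrations. GI50 = concentration required for 50% inhibition of growth. TGI is the concentration that stops growth completely.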

Experiments:
Test in all cases: DTP human tumour cell line panel, 48 h
BT-549 breast = test system: BT-549 breast
HCT-116 colon = test system: HCT-116 colon
HL-60(TB) leukemia = test system: HL-60(TB) leukemia
HOP-92 NSCLC = test system: HOP-92 NSCLC
M14 melanoma = test system: M14 melanoma
OVCAR-5 ovarian = test system: OVCAR-5 ovarian
OVCAR-8 ovarian = test system: OVCAR-8 ovarian
RPMI-8226 leukemia = test system: RPMI-8226 leukemia
SNB-19 CNS = test system: SNB-19 CNS
UO-31 renal = test system: UO-31 renal

Row | Compound | GI50 (BT-549 breast) | TGI (BT-549 breast) | GI50 (HCT-116 colon) | TGI (HCT-116 colon) | GI50 (HL-60(TB) leukemia) | TGI (HL-60(TB) leukemia) | GI50 (HOP-92 NSCLC) | TGI (HOP-92 NSCLC) | GI50 (M14 melanoma) | TGI (M14 melanoma) | GI50 (OVCAR-5 ovarian) | TGI (OVCAR-5 ovarian) | GI50 (OVCAR-8 ovarian) | TGI (OVCAR-8 ovarian) | GI50 (RPMI-8226 leukemia) | TGI (RPMI-8226 leukemia) | GI50 (SNB-19 CNS) | TGI (SNB-19 CNS) | GI50 (UO-31 renal) | TGI (UO-31 renal)
1 | CC12CC=CCC1CCC1C2CCC2(C)C(c3ccc(=O)oc3)CCC12O (centres undefined) | 0.04 µM | 0.209 µM | 0.0349 µM | 0.143 µM | 0.0272 µM | 0.0732 µM | 0.148 µM | 0.756 µM | 0.113 µM | 0.404 µM | 0.186 µM | 0.482 µM | 0.0944 µM | 0.324 µM | 0.107 µM | 0.756 µM | 0.295 µM | 1.19 µM | 0.0988 µM | 0.225 µM
2 | Cn1cc(C2=C(c3cn(C)c4cc(N)ccc34)C(=O)NC2=O)c2ccccc21 | 4.32 µM | 14.6 µM | 1.28 µM | > 25 µM | 1.1 µM | 5.52 µM | 5.86 µM | > 18.9 µM | 4.96 µM | > 25 µM | 8.13 µM | > 21.9 µM | 4.18 µM | > 25 µM | 2.92 µM | 11.6 µM | 5.45 µM | 24.3 µM | 2.54 µM | 15.4 µM
3 | CC(=O)c1cc(-c2ccccc2N)n(-c2ccc3c(c2)OCO3)c1C | 0.575 µM | 9.9 µM | 0.257 µM | 15.9 µM | 0.217 µM | 0.592 µM | 0.149 µM | 24.8 µM | 0.279 µM | 75 µM | 0.268 µM | > 100 µM | 0.156 µM | > 100 µM | 0.351 µM | 19.3 µM | 0.299 µM | > 100 µM | 0.696 µM | 45.5 µM
4 | Cc1nn(CNc2ccccc2C(F)(F)F)c(=S)n1/N=C/c1ccc(F)cc1 | > 100 µM | > 100 µM | 91.2 µM | > 100 µM | 91.9 µM | > 100 µM | 34.8 µM | > 100 µM | 87.9 µM | > 100 µM | 73 µM | > 100 µM | > 100 µM | > 100 µM | 48.5 µM | > 100 µM | 94 µM | > 100 µM | > 100 µM | > 100 µM
5 | CC[C@@]12C=CCN3CC[C@]4(c5cc(NC(=O)COc6cc(OCC(=O)Nc7cc8c(cc7OC)N(C)[C@H]7[C@@](O)(C(=O)OC)[C@H](OC(C)=O)[C@]9(CC)C=CCN%10CC[C@]87[C@@H]%109)cc7oc(-c8ccccc8)cc(=O)c67)c(OC)cc5N(C)[C@@H]4[C@](O)(C(=O)OC)[C@H]1OC(C)=O)[C@H]32 | 3.7 µM | > 100 µM | 1.79 µM | 6.14 µM | 20.4 µM | > 100 µM | 7.07 µM | 80.4 µM | 6.06 µM | 28.7 µM | 3.76 µM | 48.2 µM | 2.87 µM | > 100 µM | 3.2 µM | > 100 µM | 5.71 µM | > 100 µM | > 100 µM | > 100 µM
6 | Clc1ccc2c(c1)C(N1CCNCC1)=Nc1ccccc1O2 | 2.42 µM | 10.2 µM | 1.42 µM | 2.8 µM | 1.95 µM | 3.86 µM | 0.374 µM | 2.8 µM | 1.68 µM | 3.07 µM | 3.28 µM | 12.9 µM | 1.86 µM | 4 µM | 1.96 µM | 4.93 µM | 2.97 µM | 12.8 µM | 1.64 µM | 10.6 µM
7 | Cc1cc(=O)oc2cc(OC(=O)N(CCCl)CCCl)ccc12 | – | > 100 µM | – | > 100 µM | – | > 100 µM | – | 95.9 µM | – | > 100 µM | – | > 100 µM | – | > 100 µM | – | > 100 µM | – | > 100 µM | – | > 100 µM
8 | O=C(Nc1ccc(Br)cc1)Nc1nn(C(=O)Nc2ccc(Br)cc2)c2ccccc12 | 34.5 µM | > 93.7 µM | 16.9 µM | > 100 µM | 12 µM | > 32.2 µM | 24.4 µM | > 65.5 µM | > 70.8 µM | > 100 µM | > 100 µM | > 100 µM | 36.2 µM | > 100 µM | > 51.7 µM | > 100 µM | 23.6 µM | 81 µM | > 100 µM | > 100 µM
9 | Clc1ccc2ns[s+]c2c1 | – | > 100 µM | – | > 100 µM | – | > 77.9 µM | – | > 100 µM | – | > 100 µM | – | > 100 µM | – | > 100 µM | – | > 100 µM | – | > 100 µM | – | > 66.8 µM
10 | NNS(=O)(=O)c1cc(C(=O)O)cc(C(=O)O)c1 | – | > 100 µM | – | > 100 µM | – | > 100 µM | – | > 100 µM | – | > 100 µM | – | > 100 µM | – | > 100 µM | – | > 100 µM | – | > 100 µM | – | > 100 µM
11 | Cc1cnc(Nc2ccc(OCCN3CCCC3)cc2)nc1Nc1cccc(S(=O)(=O)NC(C)(C)C)c1 | 1.74 µM and 2.68 µM | 4.38 µM and > 9.47 µM | 0.345 µM | 4.94 µM and > 6.43 µM | 0.516 µM | 0.6 µM and 2.16 µM | 0.196 µM and 0.384 µM | 2.75 µM and 1.88 µM | 0.19 µM and 0.61 µM | 3.54 µM and 6.25 µM | 0.151 µM and 0.928 µM | 4.51 µM and > 10 µM | 0.666 µM and 2.66 µM | 9.03 µM and > 10 µM | 1.23 µM and 1.09 µM | 6.51 µM and > 6.61 µM | 2.66 µM and 3.4 µM | 15.6 µM and > 10 µM | 0.221 µM and 0.656 µM | 1.99 µM and 2.44 µM
12 | COC(=O)c1ccc(CN2C(=O)C(Cl)=C(Nc3ccc(OC)c(Cl)c3)C2=O)cc1 | 11.3 µM | 26.7 µM | 13.3 µM | > 50 µM | 32 µM | > 50 µM | > 50 µM | > 50 µM | 32.6 µM | > 50 µM | 17.8 µM | 44.1 µM | 23.8 µM | > 50 µM | > 50 µM | > 50 µM | 5.93 µM | 22.3 µM | 31.8 µM | > 50 µM
13 | [N-]=[N+]=CC(=O)COC(=O)c1ccccc1 | – | > 100 µM | – | > 100 µM | – | > 100 µM | – | > 100 µM | – | > 100 µM | – | > 100 µM | – | > 100 µM | – | > 100 µM | – | > 100 µM | – | > 100 µM
14 | C[C@]12CC[C@H]3[C@@H](CC[C@]4(O)C[C@@H](O)CC[C@]34CO)[C@@]1(O)CC[C@@H]2C1=CC(=O)OC1 | – | 3.68 µM | – | 4.31 µM | – | 8.23 µM | – | 18.9 µM | – | 14.5 µM | – | 10.5 µM | – | 3.82 µM | – | 6.83 µM | – | 23.6 µM | – | –
